Data from paper PMC4766415 (Nature Communications, 2016).
Where two headings read alike, the source gives them in different places.

Columns and labels:
[1] = tested on: Rat Schwannoma cells (RN22); assay: Caspase-3 activation by Y78F-TTR oligomers in RN22 cells; details: Y78F-TTR aggregates 2 μM formed with 20 μM compound; 24 h exposure
TTR [2] = tested on: TTR; parameters: method as in Vyndaqel European Public Assessment Report (EMA/815723/2011); details: single dose of 120 mg; ref Vyndaqel European Public Assessment Report (EMA/815723/2011); cited from earlier work
Y78F-TTR = Y78F-TTR (Homo sapiens, UniProt P02766, Y98F); assay: Y78F-TTR aggregation inhibition, turbidity at 340 nm, pH 4.2
[3] = tested on: T1, TTR in human plasma (WT-TTR and V30M-TTR); assay: [125I]T4 competition in human plasma, native gel electrophoresis; type: binding; details: 1 mM; plasma from normal (WT-TTR) and V30M-TTR FAP patient; 1 h RT
T1 construct: human plasma from a normal (WT-TTR) and from an FAP patient carrying the V30M-TTR mutation; from tissue; host or cells: human plasma of normal donors and of V30M-TTR carriers
Text: Error bars indicate s.e.m. (n=3). […] Error bars indicate s.e.m. (n=3).

AC16 cells = assay: TTR-induced cytotoxicity in AC16 cells, resazurin reduction assay; type: cell-based, human; details: 16 μM compound, 8 μM TTR; 24 h
Text: Error bars indicate s.e.m. […] Error bars indicate s.e.m. (n=4). […] Error bars indicate s.e.m. (n=3).

[4] = parameters: method as in Vyndaqel European Public Assessment Report (EMA/815723/2011); details: single dose of 120 mg; ref Vyndaqel European Public Assessment Report (EMA/815723/2011); cited from earlier work
L55P-TTR = tested on: T2, L55P-TTR; assay: Dot-blot filter assay of L55P-TTR aggregation secreted by RN22 cells; type: cell-based, human; details: 1 μM in the medium
T2 construct: TTR is composed of four identical 127 amino-acid residue β-sheet-rich subunits; expressed in transfected cells; host or cells: rat Schwannoma RN22 cells, metallothionein promoter, ZnSO4 induction
Procedure: The extent of extracellular L55P-TTR aggregation was monitored by a filter trap assay followed by TTR immunodetection.
The rat Schwannoma cell line RN22 stably co-transfected with TTR L55P cDNA under the control of the metallothionein promoter was used to test the inhibitors of TTR aggregation as in ref. [51]. […] TTR in the medium was quantified by ELISA, and the volume of medium corresponding to 500 ng of TTR was applied on to a 0.2-μm pore cellulose acetate membrane filter (Schleicher and Schuell) using a manifold system (Gibco BRL) to separate soluble proteins from aggregates. […] Detection was performed with ECL (GE Healthcare). Dot blot quantification was performed using the ImageQuant program. The percentage of aggregation inhibition was calculated as 100 × ((Control—Treated)/Control). Experiments were repeated three times in triplicate.

V122I-TTR = target: V122I-TTR; parameters: method as in PMID 23716704; details: subunit exchange assays; cited from earlier work
[5] = tested on: WT and V30M-TTR tetramers in plasma; assay: TTR tetramer stability in human plasma by IEF under semi-denaturing conditions; type: biochemical; details: 1.4 mM, overnight 4 °C, 4 M urea
[6] = parameters: method as in PMID 17107884; details: cited from earlier work
TTR [7] = target: TTR; parameters: method as in PMID 14968122; details: cited from earlier work
FAP = tested on: FAP; parameters: method as in PMID 24368466; details: patients with FAP, 2 years treatment; cited from earlier work

Compound | reduction in Caspase-3 activation [1] | average percent stabilization of TTR (TTR [2]) | RA (%): percent reduction of TTR aggregation rate at high inhibitor concentration (Y78F-TTR) | radioactive T4-TTR band in the presence of compound [3] | effect on WT-TTR and V122I-TTR induced reduction in cell viability (AC16 cells) | average concentration in plasma at Tmax [4] | reduction of L55P-TTR aggregation compared with untreated cells (L55P-TTR) | Kd2 estimate (V122I-TTR) | TTR tetramer stabilization in plasma [5] | concentration in serum after oral administration [6] | Kd (TTR [7]; read-out: Kd1) | Kd (TTR [7]; read-out: Kd2) | effect on progression of neurological impairment (FAP)
O=C(O)c1ccc2nc(-c3cc(Cl)cc(Cl)c3)oc2c1 [tafamidis] | 11.6%±4.0 | 189% | 59.57% | no longer visible | rescued this toxic effect | 14.4 µM | ~90% | in the μM range | stabilized WT and V30M-TTR tetramers in plasma |  |  |  | 
O=C(O)c1cc(-c2ccc(F)cc2F)ccc1O [diflunisal] |  |  |  |  |  |  |  |  |  | > 140 µM | 75 nM | 1100 nM | reduced the rate of progression of neurological impairment
